Test results: patent US7985774B2, “Use of 3,5-seco-4-nor-cholestane derivatives for obtaining a cytoprotective drug” (Trophos, priority 2006, dated 2011)

Columns and labels:
caspase-3 = test: Caspase-3 activity (apoptosis) after doxorubicin; type: cell-based, rabbit; details: doxorubicin 1 μM alone, 8 hrs; control 19±9
Protocol: (§1) Isolated ventricular cells are obtained from hearts of male New Zealand rabbits as described in A. d'Anglemont de Tassigny et al., Fund. Clin. Pharmacol, 18: 531-38, 2004. Briefly, the rabbits (2.0-2.5 kg) are anaesthetized with a pentobarbital solution (50 mg/kg) and they then receive heparin (200 IU/kg). The hearts are excised and immediately perfused, for 10-15 minutes by means of a Langendorff apparatus without recirculation with an oxygenated tyrode (calcium-free) isotonic solution (95%, 2-5% CO2) (in mM: NaCl 135, KCl 5.4, Na2PO4 0.33, MgCl2 1.0, HEPES 10, pH adjusted to 7.4 with 1N NaOH at 37° C., 280-300 mOsmol/kgH2O). Next, all the hearts are perfused for 3 minutes in the “recirculation” mode with the same calcium-free Tyrode solution (coronary flow rate, 10-15 mL/min) added with 1 mg/mL of type II collagenase and 0.28 mg/mL of XIV type protease. Finally, all the hearts are perfused in a mode without any recirculation with the same solution of Tyrode supplemented with 0.3 mM of CaCl2 for 10 min. The left ventricle is removed and cut into small pieces; cell dissociation is achieved by mild mechanical stirring. Extracellular calcium is added by increments every 15 minutes, in order to reach a physiological concentration of 1.0 mM. […]
Caspase-3 activity is used as a quantitative method for measuring apoptosis. […] The fluorogenic substrate for measuring caspase-3 activity (DEVD) is marked with the fluorochrome, 7-amino-4-methyl coumarine (AMC), which produces […] fluorescence detectable in UV light at 360/460 nm for 210 min. […]
(§2) Apoptosis is induced in isolated cardiomyocytes by 3-8 hour exposure to 1 μM of doxorubicin added into an isotonic solution containing (in mM) NaCl 110, KCl 5.4, Na2PO4 0.33, NaHCO3 25, glucose 5, MgCl2 0.8, CaCl2 1, pH adjusted to 7.4. […] The contractility of cardiomyocytes was measured every hour during the 8 hrs of exposure to doxorubicin. […]

[1] = test system: rabbit ventricular cardiomyocytes; test: Contractile dysfunction test induced by doxorubicin (sarcomer shortening); type: cell-based; details: doxorubicin 1 μM alone, after 4 hrs of exposure; control −19.49±2.06%
Protocol: A stock solution of 3,5-seco-4-nor-cholestan-5-one oxime-3-ol at a concentration of 10 mM in 100% DMSO was used.
The final concentration in DMSO was the same for all the experimental points, independently of the molecular concentrations used.
3,5-seco-4-nor-cholestan-5-one oxime-3-ol was tested at concentrations of 0.1 and 0.3 μM, diluted in a Tyrode solution (composition in mmol/L: NaCl 135, KCl 5.4, NaH2PO4 0.33, CaCl2 1.2, MgCl2 1.0, Hepes 10; pH adjusted to 7.4 with NaOH).
Isolated ventricular cells are obtained from hearts of male New Zealand rabbits as described in A. d'Anglemont de Tassigny et al., Fund. Clin. Pharmacol, 18: 531-38, 2004. Briefly, the rabbits (2.0-2.5 kg) are anaesthetized with a pentobarbital solution (50 mg/kg) and they then receive heparin (200 IU/kg). The hearts are excised and immediately perfused, for 10-15 minutes by means of a Langendorff apparatus without recirculation with an oxygenated tyrode (calcium-free) isotonic solution (95%, 2-5% CO2) (in mM: NaCl 135, KCl 5.4, Na2PO4 0.33, MgCl2 1.0, HEPES 10, pH adjusted to 7.4 with 1N NaOH at 37° C., 280-300 mOsmol/kgH2O). […]
The myocytes were selected for the study according to the following criterion: a rod-like aspect with very apparent striations and no intracellular vacuola, no spontaneous contraction when they are stimulated with 1 mM Ca^2+, and with constant rest length and contraction amplitude. The length of the sarcomers was measured by means of a video image analysis program and the data were acquired at a rate of 240 samples/s. […]
as §2

[2] = test system: rabbit ventricular cardiomyocytes; test: Annexin V marking of phosphatidylserine (apoptosis) after doxorubicin; type: cell-based; details: doxorubicin 1 μM alone, 3 hrs; control 100%
Protocol: as §1
Annexin V marking of phosphatidylserine was used as a quantitative method for measuring apoptosis by using the MiniMacs cell isolation kit (Miltenyi Biotec, Bergisch, Gladbach, Germany). […] The column is removed from the magnetic field, the cells exposing phosphatidylserine, magnetically retained, are eluted as a positive fraction and counted with a Mallassez cell counter. […]
as §2

C57BL6 mice = test: In vivo model of myocardium infarction (coronary occlusion-reperfusion)
Protocol: The purpose of this experiment is to study in vivo the cardioprotective properties of the compounds, 3,5-seco-4-nor-cholestan-5-one oxime-3-ol and 3,5-seco-4-nor-cholestan-5-one oxime-3-N,N-dimethylglycine ester, in a murine coronary occlusion-reperfusion model.
The compounds to be tested are administered intravenously in mice, 5 minutes before reperfusion of the myocardium ischemiated beforehand. As controls, carriers of the compounds beta-cyclodextrin (hereafter called βCD) and water, respectively, are administered under the same conditions as for the compounds.
In order to determine the effect of the tested compounds, the size of the infarction is measured after 24 hour reperfusion.
6-8 week old male C57BL6 mice are anaesthetized with sodium pentobarbital (50 mg/kg i.p.) and are ventilated after intubation with an O2/CO2 (95%/5%) mixture throughout the experiment. The surface electrocardiogram (ECG) is recorded and viewed on an oscilloscope all along surgery. Under strict asepsis conditions, the jugular vein is catheterized for intravenous administration of the compounds. A left lateral thoracotomy is performed and after pericardiotomy, a major branch of the left coronary artery is localized in the latero-posterior region of the left ventricle. A prolene no. 8 suture is positioned around this artery so as to form a mobile loop for making a temporary coronary occlusion.
All the mice were subject to a 30 minute temporary coronary occlusion. Ischemia of the myocardium region is confirmed by cyanosis of the myocardium surface and a deviation of the ST segment of the electrocardiogram.
Each of the compounds (treated group, n=10) or its solvent (control group, n=10) was administered as a bolus intravenously, 5 min before lifting the 30 minutes of coronary occlusion.
3,5-seco-4-nor-cholestan-5-one oxime-3-ol, dissolved beforehand to a final concentration of 0.46 mg/ml in a 30% βCD solution in phosphate buffer prepared by saturation followed by centrifugation, is administered at a dosage of 1 mg/kg.
3,5-seco-4-nor-cholestan-5-one oxime-3-N,N-dimethylglycine ester, dissolved beforehand to a final concentration of 1.56 mg/ml in sterile water by stirring and sonication, is administered at a dosage of 3.9 mg/kg.
The same volume of carrier is administered in the corresponding control groups.
Twenty four hours after the end of coronary occlusion, the mice are re-anaesthetized with sodium pentobarbital (50 mg/kg i.p.) and heparin is administered intravenously (Choay© heparin 1,000 IU/kg). A ligature of the coronary artery is achieved at the same location having been subject to the first occlusion 24 h previously. The mice are then euthanized with a lethal saturated dose of potassium chloride and their heart is rapidly excised and then mounted through the aorta artery on a retrograde perfusion system of the Langendorff type.
A 5% Evans blue solution is perfused retrogradely so that the healthy myocardium is colored in blue; the area made ischemic during the coronary occlusion, or <<area of risk AR>> remaining uncolored by default.
The left ventricle is then cut out into 5 slices with equal thicknesses (1 mm) by means of a slicer specially designed for hearts of mice (Les Isolants de Paris, Palaiseau), which are then weighed.
These slices are incubated in a 1% triphenyltetrazolium chloride solution (TTC, Sigma, Poole, UK) at pH 7.4 for 20 min at 37° C. and then set in 4% formol. TTC has the property of coloring the non-infarcted myocardium in red, and so showing the infarcted areas in white. Each heart slice is placed under a stereo microscope for taking a high definition digital photograph.
Quantification of infarction and the area of risk is carried out by planimetry (Scion Image, Scion, Frederick Md., USA) and referred to the weight of each slice.
The area of risk (non-blue area) is expressed as a percentage of the weight of the left ventricle. The infarction sizes are expressed as a percentage of the weight of the area of risk. […]

[3] = 3.9 mg/kg i.v. bolus in water 5 min before reperfusion, 30 min occlusion, 24 h reperfusion, mean±SEM

| Compound | caspase-3 activity (caspase-3) | shortening of the peak relatively to the base line [1] | Apoptosis as % of change in annexin V marking [2] | Area of risk (percentage of the weight of the left ventricle) (C57BL6 mice; [3]) | Infarction size (percentage of the weight of the area of risk) (C57BL6 mice; [3]) | Infarction size reduction (C57BL6 mice; 3.9 mg/kg i.v., versus carrier (water)) |
| --- | --- | --- | --- | --- | --- | --- |
| COc1cccc2c1C(=O)c1c(O)c3c(c(O)c1C2=O)C[C@@](O)(C(=O)CO)C[C@@H]3O[C@H]1C[C@H](N)[C@H](O)[C@H](C)O1 [doxorubicin, reference compound] | 120 ± 15 fmol/min | −53.20±7.70% | 320% | – | – | – |
| CC(C)CCC[C@@H](C)[C@H]1CC[C@H]2[C@@H]3CCC(=NO)[C@](C)(CCCOC(=O)CN(C)C)[C@H]3CC[C@]12C [3,5-seco-4-nor-cholestan-5-one oxime-3-N,N-dimethylglycine ester] | – | – | – | 8 +/− 3% | 23 +/− 9% | 42.5% |
